Our source for the inhibition values is publication PMC6934184, “Selective DNA-PKcs inhibition extends the therapeutic index of localized radiotherapy and chemotherapy” (The Journal of Clinical Investigation, 2019).

Molecules are shown by their SMILES.

For the assay, the target named is T1, PAK4 (Homo sapiens, UniProt O96013).
T1 construct: purchased Thermo Fisher Scientific (Life Technologies) SelectScreen
Kind of assay: SelectScreen Z'LYTE. Type of assay: biochemical. In a few lines:
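NU5455 was profiled across the SelectScreen Broad panel of kinase activity and binding assays. Z'LYTE reactions such as CSF1R ran at apparent Km ATP, while the Adapta CAMK1 assay used ATP listed as 10. Values are given as percent.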

T1 sequence (O96013 whole entry): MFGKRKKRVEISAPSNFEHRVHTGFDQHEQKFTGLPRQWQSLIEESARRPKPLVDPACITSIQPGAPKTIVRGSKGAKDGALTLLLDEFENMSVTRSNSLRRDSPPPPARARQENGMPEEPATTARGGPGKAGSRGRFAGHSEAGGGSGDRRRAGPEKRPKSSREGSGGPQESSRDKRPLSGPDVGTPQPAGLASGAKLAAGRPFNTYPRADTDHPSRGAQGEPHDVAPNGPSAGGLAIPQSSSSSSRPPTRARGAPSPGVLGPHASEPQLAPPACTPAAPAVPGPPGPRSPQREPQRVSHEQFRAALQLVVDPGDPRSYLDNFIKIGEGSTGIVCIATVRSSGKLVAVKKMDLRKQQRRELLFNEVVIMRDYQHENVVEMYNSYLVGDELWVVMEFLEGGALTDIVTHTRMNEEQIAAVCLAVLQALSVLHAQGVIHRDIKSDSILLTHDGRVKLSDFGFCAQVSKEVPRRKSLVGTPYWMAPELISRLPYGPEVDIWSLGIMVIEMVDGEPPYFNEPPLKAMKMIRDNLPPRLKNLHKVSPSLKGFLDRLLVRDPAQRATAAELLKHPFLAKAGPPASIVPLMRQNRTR

`CN(C(=O)CN1CCOCC1)c1ccc2sc3c(-c4cccc5c(=O)cc(N6CC7CCC(C6)O7)oc45)cccc3c2c1` [NU5455]: the inhibition (in general, the drop in the measured response relative to a control, in per cent) at 1 µM was -3.3%.
